According to US20250325586A1, “TREATING CANCER” (priority 2022, published 2025):
“Also recorded” adds a separate entry of the source.

Assays:
[1] = system: TSHR expression in ATC PDX tumors (THJ-560 / MC-Th-560); assay: IHC of TSHR and pERK in ATC PDX tumors treated with MEK/BRAF inhibitors; format: in vivo, NSG mice
Method: Immunostaining was performed on paraffin-embedded tissue. Thyroid tissue microarray (TMA) was made from archival samples. Paraffin blocks were cut into 5 μm thick sections. Slides were deparaffinized, and were rehydrated with decreasing concentrations of ethanol and finally in water. Antigen retrieval was performed using Antigen Retrieval Solution (pH 6 or pH 9) (Dako, Glostrup, Denmark), for at least 15 minutes in an autoclave, and cooling for 30 minutes at room temperature. Washing slides with 3% hydrogen peroxide (Fisher Scientific, Waltham, MA, USA) for 10 minutes blocked the activity of endogenous peroxidases. Primary anti-human antibodies were used for 60 minutes at room temperature and at the following dilutions: TSHR antibody at 1:500 (abcam, ab218108, Cambridge, UK) and NIS antibody at 1:200 (ProteinTech, 24324-1-AP, Rosemont, IL, USA), CD14 antibody at 1:100 (abcam, ab183322, Cambridge, UK), CD80 at 1:1000 (abcam, ab134120, Cambridge, UK), CD206 at 1:5000 (abcam, ab64693, Cambridge, UK), Ki67 at 1:1000 (abcam, ab15580, Cambridge, UK), cleaved caspase 3 (Asp175) CC3 at 1:100 (Cell Signaling 9661, Danvers, MA, USA), and CD31 at (Santa Cruz Biotechnology, sc-1506, Dallas, TX, USA).
In this model, 5 mm^3 MC-Th-560 ATC PDX tissue was surgically implanted into the right lateral flank of NSG mice and grown to ˜100 mm^3. Mice then received daily treatment with either vehicle control or trametinib (MEK inhibitor) at the indicated doses.
The following was performed to assess the kinetics of TSHR expression after MEK/BRAF inhibition. Mice were implanted with 5 mm^3 Th-560 ATC PDX tumors. When tumors reached ˜100 mm^3, mice were treated daily with either vehicle control or with 1.5 mg/kg R05126766 plus 1 mg/kg dabrafenib.
Immunostaining was performed on paraffin-embedded tissue. Thyroid tissue microarray (TMA) was made from archival samples. Paraffin blocks were cut into 5 μm thick sections. […] The primary antibody was detected using the Envision Labeled Kit (Dako, Glostrup, Denmark) according to the manufacturer's protocol. […]

[2] = system: ATC THJ-560 PDX tumors; assay: Tumor volume of ATC PDX tumors treated with MEK/BRAF inhibitors; format: in vivo, NSG mice
Method: FIGS. 9A-9J. Treatment of thyroid tumors with MAPK inhibitors results in upregulation of TSHR. […] NSG mice treated with different daily doses of trametinib for 8 days and tumor volume regression was measured. FIG. 9B) TSHR expression was restored with higher dose of trametinib, whereas pERK expression was reduced. Right. […] Left. Association between H-score of TSHR and pERK in correlation with trametinib dose-escalation. […] Assessment of tumor volume on NSG mice treated with different doses of R05126766. […] Right. ICH tumor sections showing TSRH and pERK expression. Left. H-score of TSRH and pERK in association with increasing doses of R05126766. FIG. 9E) Experimental schema of an ATC PDX model treated with MAPK inhibitors (MEKi and BRAFi). […] Treatment was begun when tumors were ˜75-100 mm^3. […] Upper panel. H-score of TSHR in ATC-derived treated tumors (One-way ANOVA; **p<0.01; n=4 mice; error bars, SEM). Lower panel. TSHR expression assessment via IHC. […] Tumor volume assessment over a period of 7 days of MAPK inhibitors dosage. FIG. 9H) Experimental schema of an ATC PDX model treated with MEK inhibitors. NSG mice were implanted with ATC PDX tumors and treatment with MEK inhibitors (for 14 days) R05126766 and trametinib started (daily dosage) when tumors reached ˜75-100 mm^3. […] Upper panel. […]

[3] = system: luciferase/TSHR+/+ K562 or luciferase/TSHR+/+ FTC133 cells; details: presence or absence of MEK inhibitor (10 nM trametinib, FTC133, 48 hours in FIG. 10A)
Method: Cytotoxicity assays: Cytotoxicity assays were performed as described elsewhere (see, e.g., Sterner, R. M. et al., Blood 133, 697-709 (2019)). In summation, luciferase/TSHR+/+K562 or luciferase/TSHR+/+FTC133 cells was used as a target cell. TSHR-CAR T cells or batch-matched control donor untransduced (non-transduced) T cells (UTD) were co-cultured with target cells at serial effector: target (E:T) ratios in T cell media. Cytotoxic efficiency was calculated by bioluminescence imaging on the Xenogen IVIS-200 Spectrum (PerkinElmer, Hopkinton, MA, USA) or Promega GlowMax Explorer (Promega Corporation, Fitchburg, WI, USA) at 24 hours, 48 hours, and 72 hours, as indicated in the specific experiment.
Cytotoxicity assays were performed as described elsewhere (Sterner, R. M. et al., Blood 133, 697-709 (2019)). Luciferase*TSHR*K562 or FTC133 cells were used as target cells. UTD or TSHR-CART cells were co-cultured with target cells at various effector: target (E:T) ratios in T cell medium. Cytotoxic efficiency was calculated by bioluminescence imaging on the Promega GlowMax Explorer (Promega Corporation, Fitchburg, WI, USA) at indicated time points.

[4] = one week of daily treatment at escalating doses, MC-Th-560 ATC PDX, vs placebo

SMILES | TSHR protein expression by IHC ([1]; 14 days daily oral, 1.5 mg/kg R05126766 or 1 mg/kg trametinib, vs vehicle/placebo) | TSHR expression by IHC, dose escalation [1, 4] | pERK expression by IHC, dose escalation [1, 4] | anti-tumor activity (tumor volume by caliper) ([2]; 14 days daily, placebo, R05126766 or trametinib) | tumor volume, dose escalation ([2]; different daily doses (trametinib: 8 days)) | effect of MEK inhibitor on TSHR CART cell cytotoxicity [3]
CNS(=O)(=O)Nc1nccc(Cc2c(C)c3ccc(Oc4ncccn4)cc3oc2=O)c1F [Clone R05126766] | elevated significantly; also recorded: increased TSHR expression | increase in TSHR expression; also recorded: increased expression of TSRH | reduction of pERK; also recorded: lower expression of pERK | better anti-tumor activity in comparison to trametinib | dose-depended tumor reduction; also recorded: proportional to thyroid tumor volume reduction | –
CC(=O)Nc1cccc(-n2c(=O)n(C3CC3)c(=O)c3c(Nc4ccc(I)cc4F)n(C)c(=O)c(C)c32)c1 [trametinib] | – | – | – | – | – | did not impair
